Assay results taken from patent publication US10308648B2, “Inhibitors of cyclin-dependent kinase 7 (CDK7)” (Syros Pharmaceuticals, Inc., priority 2014, dated 2019).
Where a name gives a salt, the structure may show the parent alone.

What was measured:
[1] = biological target: CDK7 (Homo sapiens (Human), UniProt P50613); experiment: CDK7 kinase activity (Life Technologies Adapta kinase assay); assay type: biochemical; settings: 10 μM down to 0.514 nM, 3-fold serial dilutions, read-out: CDK7 Inhibition (IC50)
CDK7, sequence (P50613 whole entry): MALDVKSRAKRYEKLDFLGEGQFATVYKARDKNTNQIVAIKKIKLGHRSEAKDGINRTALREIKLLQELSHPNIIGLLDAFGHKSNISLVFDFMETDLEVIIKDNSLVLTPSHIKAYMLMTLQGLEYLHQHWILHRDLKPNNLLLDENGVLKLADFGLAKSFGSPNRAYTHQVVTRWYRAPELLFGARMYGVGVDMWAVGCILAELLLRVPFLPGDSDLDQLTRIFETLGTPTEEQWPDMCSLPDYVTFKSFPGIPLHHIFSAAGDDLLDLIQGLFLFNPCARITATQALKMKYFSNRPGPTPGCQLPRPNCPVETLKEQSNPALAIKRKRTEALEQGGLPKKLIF
CDK7, sequence (P51946 whole entry partner): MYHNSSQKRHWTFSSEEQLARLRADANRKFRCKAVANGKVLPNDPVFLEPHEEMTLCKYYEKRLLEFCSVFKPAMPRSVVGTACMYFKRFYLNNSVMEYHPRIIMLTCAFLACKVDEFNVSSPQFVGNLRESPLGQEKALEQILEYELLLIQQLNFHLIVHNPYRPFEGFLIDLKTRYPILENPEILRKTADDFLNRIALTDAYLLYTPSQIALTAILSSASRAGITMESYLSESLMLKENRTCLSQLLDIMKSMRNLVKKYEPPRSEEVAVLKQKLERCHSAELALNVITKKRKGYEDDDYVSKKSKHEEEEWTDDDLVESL
CDK7, sequence (P51948 whole entry partner): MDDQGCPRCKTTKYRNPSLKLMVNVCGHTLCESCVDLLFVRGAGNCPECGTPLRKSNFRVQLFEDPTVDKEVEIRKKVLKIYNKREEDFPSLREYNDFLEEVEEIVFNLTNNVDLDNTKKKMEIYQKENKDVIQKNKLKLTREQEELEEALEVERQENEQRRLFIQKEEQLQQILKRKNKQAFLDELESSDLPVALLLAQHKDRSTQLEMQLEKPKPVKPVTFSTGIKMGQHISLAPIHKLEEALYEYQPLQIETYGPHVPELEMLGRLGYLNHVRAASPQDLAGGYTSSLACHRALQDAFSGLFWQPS
Protocol: Compounds of the invention were assayed for CDK7 activity at Life Technologies™ (Grand Island, N.Y.) using their commercially available Adapta® kinase assay services. Test compounds were tested at concentrations ranging from 10 μM down to 0.514 nM in a series of 3-fold serial dilutions. Details of this assay, including substrates used, are available on the Life Technologies web site (http://www.lifetechnologies.com/us/en/home/life-science/drug-discovery/target-and-lead-identification-and-validation/kinasebiology/kinase-activity-assays.html). The results of the assay are shown below in Table 3 where “A” represents a calculated IC50 of less than 100 nM; “B” represents a calculated IC50 of between 100 nM and 1 μM; and “C” represents a calculated IC50 of greater than 1 μM.

[2] = system: Jurkat cells; experiment: Inhibition of proliferation of Jurkat cells (CellTiter-Glo); assay type: cell-based; settings: Homo sapiens, 72 hour proliferation assay
Protocol: Representative compounds of the invention were tested at different concentrations (from 10 μM to […]; 0.5 log serial dilutions) for their ability to inhibit the proliferation of Jurkat cells. Known CDK inhibitors flavopiridol and triptolide were used as positive controls. Cells were grown in RPMI 1640+10% FBS+1% Glutamax. The cells were supplemented with FBS (Life Technologies) and 100 U·mL^−1 penicillin, 100 μg·mL^−1 streptomycin (Invitrogen) and cultured at 37° C. in a humidified chamber in the presence of 5% CO2. Proliferation assays were conducted over a 72 hour time period. CellTiter-Glo® (Promega Corporation, Madison, Wis. USA) was used to assess the anti-proliferative effects of the compounds following manufacturer's directions and utilizing the reagents supplied with the CellTiter-Glo® kit. In this table, “A” represents an IC50 of less than 500 nM; “B” an IC50 of between 500 nM and 5 μM; and “C” an IC50 of greater than 5 μM.

Row | IC50 [1] [µM] | IC50 [2] [µM] | SMILES
1 | < 0.1 | 0.5 to 5 | Nc1ccc(C(=O)N[C@H]2C[C@H](O)C[C@@H](Nc3ncc(Cl)c(-c4c[nH]c5ccccc45)n3)C2)cc1 (racemic) [Compound 101, (+/−)-4-amino-N-(3-(5-chloro-4-(1H-indol-3-yl)pyrimidin-2-ylamino)-5-hydroxycyclohexyl)benzamide]
2 | 0.1 to 1 |  | Nc1ccc(C(=O)NC2CC(F)CC(Nc3ncc(Cl)c(-c4c[nH]c5ccccc45)n3)C2)cc1 (racemic) [Compound 110, (+/−)-4-amino-N-(3-(5-chloro-4-(1H-indol-3-yl)pyrimidin-2-ylamino)-5-fluorocyclohexyl)benzamide]
3 | > 1 |  | Nc1ccc(C(=O)NC23CC4CC(C2)CC(Nc2ncc(Cl)c(-c5c[nH]c6ccccc56)n2)(C4)C3)cc1 [Compound 100, 4-amino-N-(3-(5-chloro-4-(1H-indol-3-yl)pyrimidin-2-ylamino)tricyclo[3.3.1.1^3,7]decanyl)benzamide]
4 | 0.1 to 1 | > 5 | Nc1ccc(C(=O)N[C@H]2CCC[C@@H](Nc3ncc(Cl)c(-c4c[nH]c5ccccc45)n3)C2)cc1 [Compound 102, 4-amino-N-((1S,3R)-3-(5-chloro-4-(1H-indol-3-yl)pyrimidin-2-ylamino)cyclohexyl)benzamide]
5 | 0.1 to 1 | > 5 | Nc1ccc(C(=O)N[C@H]2CCC[C@@H](Nc3ncc(C4CC4)c(-c4c[nH]c5ccccc45)n3)C2)cc1 [Compound 103, 4-amino-N-((1S,3R)-3-(5-cyclopropyl-4-(1H-indol-3-yl)pyrimidin-2-ylamino)cyclohexyl)benzamide.HCl]
6 | 0.1 to 1 | > 5 | Nc1ccc(C(=O)NC23CCCC(Nc4ncc(Cl)c(-c5c[nH]c6ccccc56)n4)(C2)C3)cc1 [Compound 104, 4-amino-N-(5-(5-chloro-4-(1H-indol-3-yl)pyrimidin-2-ylamino)bicyclo[3.1.1]heptan-1-yl)benzamide]
7 | < 0.1 | 0.5 to 5 | CN(C)CCCC(=O)Nc1ccc(C(=O)N[C@H]2CCC[C@@H](Nc3ncc(Cl)c(-c4c[nH]c5ccccc45)n3)C2)cc1 [Compound 105, N-((1S,3R)-3-((5-chloro-4-(1H-indol-3-yl)pyrimidin-2-yl)amino)cyclohexyl)-4-(4-(dimethylamino)butanamido)benzamide]
8 | < 0.1 | > 5 | Nc1ccc(NC(=O)[C@H]2CCC[C@@H](Nc3ncc(Cl)c(-c4c[nH]c5ccccc45)n3)C2)cc1 [Compound 106, (1S,3R)—N-(4-aminophenyl)-3-(5-chloro-4-(1H-indol-3-yl)pyrimidin-2-ylamino)cyclohexanecarboxamide]
9 | < 0.1 | < 0.5 | N#Cc1cnc(N[C@@H]2CCC[C@H](NC(=O)c3ccc(N)cc3)C2)nc1-c1c[nH]c2ccccc12 [Compound 107, 4-amino-N-((1S,3R)-3-(5-cyano-4-(1H-indol-3-yl)pyrimidin-2-ylamino)cyclohexyl)benzamide]
10 | > 1 | > 5 | Nc1ccc(C(=O)N[C@H]2CCC[C@@H](Nc3ncc(Cl)c(-c4cccnc4)n3)C2)cc1 [Compound 108, 4-amino-N-((1S,3R)-3-(5-chloro-4-(pyridin-3-yl)pyrimidin-2-ylamino)cyclohexyl)benzamide]
11 | 0.1 to 1 | 0.5 to 5 | Nc1ccc(S(=O)(=O)N[C@H]2CCC[C@@H](Nc3ncc(Cl)c(-c4c[nH]c5ccccc45)n3)C2)cc1 [Compound 109, 4-amino-N-((1S,3R)-3-(5-chloro-4-(1H-indol-3-yl)pyrimidin-2-ylamino)cyclohexyl)benzenesulfonamide]
12 | 0.1 to 1 | > 5 | Nc1ccc(C(=O)N[C@H]2CCC[C@@H](Nc3ncc(Cl)c(-c4c[nH]c5ccccc45)n3)C2)cc1F [Compound 111, 4-amino-N-((1S,3R)-3-(5-chloro-4-(1H-indol-3-yl)pyrimidin-2-ylamino)cyclohexyl)-3-fluorobenzamide]
13 | 0.1 to 1 | 0.5 to 5 | Nc1ccc(C(=O)N[C@H]2CCC[C@@H](Nc3ncc(Cl)c(-c4c[nH]c5ccccc45)n3)C2)c(F)c1 [Compound 112, 4-amino-N-((1S,3R)-3-(5-chloro-4-(1H-indol-3-yl)pyrimidin-2-ylamino)cyclohexyl)-2-fluorobenzamide]
14 | 0.1 to 1 | 0.5 to 5 | NC(=O)C(=O)Nc1ccc(C(=O)N[C@H]2CCC[C@@H](Nc3ncc(Cl)c(-c4c[nH]c5ccccc45)n3)C2)cc1 [Compound 113, N1-(4-(((1S,3R)-3-((5-chloro-4-(1H-indol-3-yl)pyrimidin-2-yl)amino)cyclohexyl)carbamoyl)phenyl)oxalamide]
15 | > 1 |  | Nc1ccc(C(=O)N[C@H]2CCC[C@@H](Nc3nccc(-c4c[nH]c5ccccc45)n3)C2)cc1 [Compound 114, N-((1S,3R)-3-(4-(1H-indol-3-yl)pyrimidin-2-ylamino)cyclohexyl)-4-aminobenzamide]
